The text below walks through data of patent publication US7511144B2, “Reverse hydroxamic acid derivatives” (Kaken Pharmaceutical Co., Ltd., priority 2001, dated 2009).

In experiment [1] the target is T1, Human MMP9 (Homo sapiens, UniProt P14780).
T1 construct: purchased Calbiochem 444231
The experiment is described as follows: MMP9 inhibition experiment. The settings on record: read-out: IC50 value MMP-9. It is filed as biochemical.
Method: (§1) The methods of inhibition experiments carried out for various MMPs are described below.
This enzyme solution in amount of 1 μL was diluted to 90 μL with the assay buffer A, which was added to 90 μL of 20 μM fluorescent substrate (Dnp-Pro-Cha-Gly-Cys(Me)-His-Ala-Lys(Nma)-NH2) prepared in the assay buffer B, followed by reaction for 4 hours at 37° C.

For experiment [2], the target named is T2, Human MMP13 (Homo sapiens, UniProt P45452).
T2 construct: purchased Chemicon CC068
The experiment can be described thus: MMP13 inhibition experiment. It is filed as biochemical. The following applies: concentration required for 50% inhibition of enzyme activity; read-out: IC50 value MMP-13.
Method: Human MMP13 (Chemicon #CC068) in amount of 90 μL (200 ng) was activated by mixing with 10 μL of 10 mM APMA, followed by reaction for 1 hour at 37° C. This enzyme solution in amount of 0.6 μL was diluted to 90 μL with the assay buffer A, which was added to 90 μL of 20 μM fluorescent substrate (Dnp-Pro-Cha-Gly-Cys(Me)-His-Ala-Lys(Nma)-NH2) prepared in the assay buffer B, followed by reaction for 4 hours at 37° C.

Experiment [3] addresses T3, Human MMP3 (Homo sapiens, UniProt P08254).
T3 construct: purchased Calbiochem 444217
The experiment can be described thus: MMP3 inhibition experiment. It is filed as biochemical. The following applies: concentration required for 50% inhibition of enzyme activity; read-out: IC50 value MMP-3. The procedure, abridged:
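Fluorescence-quenched substrate NFF-3 (MOCAc/Dnp peptide, 20 μM as prepared) cleaved by 5 ng human MMP3 over 5 hours at 37° C, with inhibition measured from substrate fluorescence.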

Experiment [4] deals with T4, Human MMP17 (Homo sapiens, UniProt Q9ULZ9).
T4 construct: purchased Calbiochem 475940
T4 sequence (Q9ULZ9 126-300 limits assumed): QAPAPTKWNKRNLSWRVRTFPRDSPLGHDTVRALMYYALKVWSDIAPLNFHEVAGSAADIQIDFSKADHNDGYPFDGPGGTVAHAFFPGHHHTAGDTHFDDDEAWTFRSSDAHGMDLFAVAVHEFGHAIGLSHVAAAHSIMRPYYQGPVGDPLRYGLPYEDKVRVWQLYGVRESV
The experiment is described as follows: MMP17 inhibition test. It is filed as biochemical. The following applies: concentration required for 50% inhibition of enzyme activity; read-out: IC50 value MMP-17.

The target of experiment [5] is T5, Human MMP1 (Homo sapiens, UniProt P03956).
T5 construct: purchased Calbiochem 444208
T5 sequence (P03956 100-469): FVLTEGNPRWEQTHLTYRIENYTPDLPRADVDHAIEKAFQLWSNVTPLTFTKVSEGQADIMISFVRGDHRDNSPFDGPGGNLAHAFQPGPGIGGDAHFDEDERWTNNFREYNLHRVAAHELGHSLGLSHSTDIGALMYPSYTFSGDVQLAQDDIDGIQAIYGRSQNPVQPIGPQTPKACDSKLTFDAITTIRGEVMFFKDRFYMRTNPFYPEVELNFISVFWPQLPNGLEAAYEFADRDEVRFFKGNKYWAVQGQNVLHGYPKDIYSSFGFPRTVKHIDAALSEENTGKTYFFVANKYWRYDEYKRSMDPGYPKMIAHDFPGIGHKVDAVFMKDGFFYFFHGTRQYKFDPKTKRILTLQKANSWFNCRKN
The experiment can be described thus: MMP1 inhibition experiment. It is filed as biochemical. The settings on record: read-out: IC50 value MMP-1.
Method: as §1
This enzyme solution in amount of 10 μL was diluted to 90 μL with the assay buffer A, which was added to 90 μL of 20 μM fluorescent substrate (Dnp-Pro-Cha(β-cyclohexylalanyl)-Gly-Cys(Me)-His-Ala-Lys(Nma)-NH2) prepared in the assay buffer B, followed by reaction for 5 hours at 37° C.

Experiment [6] relates to TNF-α production (release). The experiment can be described thus: Study for suppression of TNF-α production (release) in vivo. The following applies: male Lewis rats, LPS 1 mL/kg i.v.; test compound 3 mg/kg subcutaneous 30 minutes later; plasma TNF-α 90 minutes after LPS (ELISA).
Method: Lipopolysaccharide (LPS) from E. coli (available from SIGMA) was dissolved in physiological saline to prepare a solution of LPS (1 mg/mL). […] The rats received the LPS solution (1 mL/kg) intravenously, and 30 minutes later, the prepared solution of the test compound was administered subcutaneously (5 mL/kg, containing 3 mg of test compound/kg). 90 minutes after administration of LPS, blood was collected from the tail vein and centrifuged for 10 minutes at 3000 rpm at 4° C. to obtain plasma. The plasma TNF-α concentration was determined by an ELISA kit specific for rat TNF-α.
Experiment [7] concerns the target T6, Human MMP14 (Homo sapiens, UniProt P50281).
T6 construct: purchased Biogenesis or Calbiochem 5980-1461 or 475935
The experiment is described as follows: MMP14 inhibition experiment. It is filed as biochemical. The following applies: concentration required for 50% inhibition of enzyme activity; read-out: IC50 value MMP-14. A digest of the protocol:
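Fluorescence assay: substrate Dnp-Pro-Cha-Gly-Cys(Me)-His-Ala-Lys(Nma)-NH2 (20 μM before equal-volume mixing) incubated at 37° C for 5 hours with 4 ng human MMP14.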

In experiment [8] the target is T7, TACE (Homo sapiens, UniProt P78536).
T7 construct: made in house; host or cells: mammalian cells or insect cells
T7 sequence (P78536 215-824): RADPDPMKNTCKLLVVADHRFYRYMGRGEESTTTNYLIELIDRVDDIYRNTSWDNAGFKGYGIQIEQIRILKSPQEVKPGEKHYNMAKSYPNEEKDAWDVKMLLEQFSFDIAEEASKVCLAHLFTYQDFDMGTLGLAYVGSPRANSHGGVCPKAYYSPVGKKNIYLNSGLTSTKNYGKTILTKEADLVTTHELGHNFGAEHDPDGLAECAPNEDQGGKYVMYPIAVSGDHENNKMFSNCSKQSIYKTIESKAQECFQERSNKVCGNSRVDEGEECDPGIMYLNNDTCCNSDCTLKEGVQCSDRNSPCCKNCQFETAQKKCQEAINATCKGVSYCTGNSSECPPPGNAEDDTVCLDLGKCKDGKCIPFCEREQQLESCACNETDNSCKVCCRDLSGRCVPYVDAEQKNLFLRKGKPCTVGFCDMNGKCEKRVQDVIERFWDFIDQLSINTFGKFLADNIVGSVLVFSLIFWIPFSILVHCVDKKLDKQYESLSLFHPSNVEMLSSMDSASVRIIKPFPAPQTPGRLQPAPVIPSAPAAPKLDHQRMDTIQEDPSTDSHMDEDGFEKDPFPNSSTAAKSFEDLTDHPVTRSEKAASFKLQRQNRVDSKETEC
The experiment is described as follows: TACE inhibition experiment (in vitro). It is filed as biochemical.

Experiment [9] has as its target T8, Human MMP8 (Homo sapiens, UniProt P22894).
T8 construct: purchased Calbiochem 444229
The experiment can be described thus: MMP8 inhibition experiment. It is filed as biochemical. The settings on record: concentration required for 50% inhibition of enzyme activity; read-out: IC50 value MMP-8. A digest of the protocol: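 Human MMP8 activated with APMA for 1 h at 37° C, then incubated with fluorogenic peptide MOCAc-Pro-Leu-Gly-Leu-A2pr(Dnp)-Ala-Arg-NH2 (20 μM stock) for 5 hours at 37° C. Fluorescent substrate cleavage serves as read-out.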

Experiment [10] has as its target T9, Human MMP2 (Homo sapiens, UniProt P08253).
T9 construct: purchased Calbiochem 444213
T9 sequence (P08253 110-660): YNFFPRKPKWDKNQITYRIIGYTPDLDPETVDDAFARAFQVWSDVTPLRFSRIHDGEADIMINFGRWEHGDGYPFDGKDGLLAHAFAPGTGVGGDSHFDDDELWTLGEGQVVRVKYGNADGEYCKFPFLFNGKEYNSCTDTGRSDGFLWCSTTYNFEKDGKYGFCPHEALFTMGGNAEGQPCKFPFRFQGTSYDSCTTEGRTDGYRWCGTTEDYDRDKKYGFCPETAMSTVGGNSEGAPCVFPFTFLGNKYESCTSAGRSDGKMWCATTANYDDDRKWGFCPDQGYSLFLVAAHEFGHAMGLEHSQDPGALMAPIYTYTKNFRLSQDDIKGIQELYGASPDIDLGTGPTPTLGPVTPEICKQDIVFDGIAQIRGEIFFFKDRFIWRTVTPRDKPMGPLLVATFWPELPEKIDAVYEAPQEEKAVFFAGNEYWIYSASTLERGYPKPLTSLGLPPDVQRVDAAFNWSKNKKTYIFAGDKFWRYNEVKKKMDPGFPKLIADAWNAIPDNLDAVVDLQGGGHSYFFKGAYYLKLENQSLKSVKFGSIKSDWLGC
The experiment is described as follows: MMP2 inhibition experiment. It is filed as biochemical. The following applies: concentration required for 50% inhibition of enzyme activity; read-out: IC50 value MMP-2.
Method: This enzyme solution in amount of 10 μL was diluted to 90 μL with the assay buffer A, which was added to 90 μL of 20 μM fluorescent substrate (MOCAc((7-methoxycoumarin-4-yl)acetyl)-Pro-Leu-Gly-Leu-A2pr(Dnp)-Ala-Arg-NH2, Peptide Institute, Inc., #3163-v) prepared in the assay buffer B, followed by reaction for 5 hours at 37° C.

The mark [11] stands for this setting: concentration required for 50% inhibition of enzyme activity.

SMILES strings stand for the structures. Read-outs that look alike come from different tables or passages of the source.

T1 sequence (P14780 107-707 limits assumed): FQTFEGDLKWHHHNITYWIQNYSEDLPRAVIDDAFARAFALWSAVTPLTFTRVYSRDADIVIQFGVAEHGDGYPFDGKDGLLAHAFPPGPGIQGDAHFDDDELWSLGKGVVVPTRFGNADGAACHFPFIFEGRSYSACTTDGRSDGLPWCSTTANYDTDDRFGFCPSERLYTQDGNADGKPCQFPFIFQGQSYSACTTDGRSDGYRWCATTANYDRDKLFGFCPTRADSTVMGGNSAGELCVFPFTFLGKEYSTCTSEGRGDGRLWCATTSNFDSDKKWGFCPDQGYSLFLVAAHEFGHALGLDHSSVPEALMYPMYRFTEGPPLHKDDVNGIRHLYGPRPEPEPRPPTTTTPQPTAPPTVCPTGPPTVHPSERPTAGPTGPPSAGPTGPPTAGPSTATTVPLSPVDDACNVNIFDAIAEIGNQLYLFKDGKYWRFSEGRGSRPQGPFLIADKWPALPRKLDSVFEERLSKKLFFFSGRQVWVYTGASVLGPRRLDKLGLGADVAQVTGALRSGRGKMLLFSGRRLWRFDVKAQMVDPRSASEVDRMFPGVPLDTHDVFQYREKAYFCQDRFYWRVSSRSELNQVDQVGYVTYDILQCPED
T8 sequence (P22894 101-467): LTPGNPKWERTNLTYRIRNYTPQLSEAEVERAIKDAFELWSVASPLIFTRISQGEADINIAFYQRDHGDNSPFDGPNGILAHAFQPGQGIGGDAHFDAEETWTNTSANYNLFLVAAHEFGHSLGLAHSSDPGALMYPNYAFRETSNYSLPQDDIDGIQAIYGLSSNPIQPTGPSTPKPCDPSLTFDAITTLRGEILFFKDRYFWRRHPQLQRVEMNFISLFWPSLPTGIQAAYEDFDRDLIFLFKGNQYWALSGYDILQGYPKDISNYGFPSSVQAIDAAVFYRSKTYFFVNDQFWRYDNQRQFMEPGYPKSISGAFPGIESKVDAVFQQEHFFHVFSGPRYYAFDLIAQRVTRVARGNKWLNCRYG
T3 sequence (P08254 100-272 limits assumed): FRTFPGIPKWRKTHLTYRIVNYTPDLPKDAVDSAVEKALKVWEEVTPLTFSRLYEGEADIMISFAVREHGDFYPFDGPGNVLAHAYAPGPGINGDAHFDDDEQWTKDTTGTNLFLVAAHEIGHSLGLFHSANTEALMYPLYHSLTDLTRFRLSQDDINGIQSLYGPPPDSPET

Broadly, the IC50 is the concentration that inhibits the measured activity by half. `Cc1cc(COc2ccc(S(=O)(=O)CC(CC3CCC(=O)CC3)N(O)C=O)cc2)c2ccccc2n1` (stereo not drawn) [Example I-2, N-Hydroxy-N-[2-{4-(2-methylquinolin-4-ylmethoxy)benzenesulfonyl}-1-(4-oxocyclohexylmethyl)ethyl]formamide]: the IC50 stood at 50 µM in experiment [1]; 6 µM in experiment [2]; 1.5 µM in experiment [3]; 0.4 µM in experiment [4]; 60 µM in [5]; 53 µM in experiment [7]. The “Suppression rate of TNF-α production (release) (%)” value in experiment [6] is on record as 42.3%.

On to `Cc1cc(COc2ccc(S(=O)(=O)CC(C=C3CCN(CC(C)C)CC3)N(O)C=O)cc2)c2ccccc2n1` (stereo not drawn) [Example I-24, N-Hydroxy-N-{1-(1-isobutylpiperidin-4-ylidenemethyl)-2-[4-(2-methylquinolin-4-ylmethoxy)benzenesulfonyl]ethyl}formamide], for which the IC50 in [8] (setting [11]) came to 0.006 µM; in experiment [2], 40 µM; in [3], 10 µM; in [4] it was 4 µM. Moreover, the “Suppression rate of TNF-α production (release) (%)” value in [6] was found to be 56.0%.

`Cc1cc(COc2ccc(S(=O)(=O)CC(C3CCC4(CC3)OCCO4)N(O)C=O)cc2)c2ccccc2n1` (stereo not drawn) [Example I-28, N-{1-(1,4-dioxaspiro[4.5]dec-8-yl)-2-[4-(2-methylquinolin-4-ylmethoxy)benzenesulfonyl]ethyl}-N-hydroxyformamide]: the IC50 in experiment [1] (setting [11]) is 40 µM; in experiment [8] (setting [11]), 0.015 µM; in experiment [2], 3.3 µM; in [3] it was 0.28 µM; in experiment [4] it was 0.22 µM; in [5], 65 µM. Moreover, the IC50 turned out to be 9 µM in [9], 7 µM in experiment [10] and 30 µM in [7].

`Cc1cc(COc2ccc(S(=O)(=O)CC(C=C3CCN(C(=O)OC(C)(C)C)CC3)N(O)C=O)cc2)c2ccccc2n1` (stereo not drawn) [Example I-18]: the IC50 was found to be 10 µM in experiment [1]; 0.004 µM in experiment [8]; 3.5 µM in [2]; 0.65 µM in [3]; 0.6 µM in experiment [4]; 65 µM in experiment [5]. The IC50 came to 24.5 µM in [9], 3.3 µM in experiment [10] and 20 µM in [7].

Take `CC(=O)N1CCC(C(CS(=O)(=O)c2ccc(OCc3cc(C)nc4ccccc34)cc2)N(O)C=O)CC1` (stereo not drawn) [Example I-73]: the IC50 in experiment [1] was > 100 µM; in [8] it was 0.014 µM; in experiment [2], 50 µM; in experiment [3], 1.7 µM; in [4], 0.66 µM; in [5], > 100 µM. Moreover, the IC50 in [9] is 18 µM; in experiment [10], 26 µM; in experiment [7] it was > 100 µM.
